Reference: ChEMBL document CHEMBL1909046, “DrugMatrix in vitro pharmacology data”

How the values were obtained:
[1] = target: Beta-3 adrenergic receptor (Homo sapiens, UniProt P13945); test: DRUGMATRIX: Adrenergic beta3 radioligand binding (ligand: [125I] Cyanopindolol); assay type: cell membranes, Membrane; conditions: hek293; Not Active = under 50% inhibition at 10 µM
[2] = DRUGMATRIX: Calcium Channel Type L, Dihydropyridine radioligand binding (ligand: [3H] Nitrendipine); assay type: cell membranes, Rattus norvegicus, Wistar, Cerebral cortex, Membrane; conditions: Not Active = under 50% inhibition at 10 µM
[3] = target: 5-hydroxytryptamine receptor 2B (Homo sapiens, UniProt P41595); assay type: cell membranes, CHO-K1, Membrane; conditions: cho-k1; also: in other assays of this panel Not Active means under 50% inhibition at 10 µM
Chain of 5-hydroxytryptamine receptor 2B (P41595 whole entry): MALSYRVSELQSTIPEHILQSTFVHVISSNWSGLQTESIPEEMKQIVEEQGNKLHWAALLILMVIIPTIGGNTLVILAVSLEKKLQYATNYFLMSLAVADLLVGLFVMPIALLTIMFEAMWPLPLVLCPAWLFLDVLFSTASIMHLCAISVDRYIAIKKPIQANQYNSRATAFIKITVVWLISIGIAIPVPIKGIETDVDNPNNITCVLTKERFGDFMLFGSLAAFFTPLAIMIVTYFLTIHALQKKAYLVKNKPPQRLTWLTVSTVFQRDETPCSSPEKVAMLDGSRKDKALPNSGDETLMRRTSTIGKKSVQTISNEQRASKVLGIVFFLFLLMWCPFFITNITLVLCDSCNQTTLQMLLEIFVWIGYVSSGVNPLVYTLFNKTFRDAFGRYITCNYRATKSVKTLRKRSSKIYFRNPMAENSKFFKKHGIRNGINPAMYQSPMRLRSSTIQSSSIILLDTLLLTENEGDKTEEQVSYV

[4] = target: 5-hydroxytryptamine receptor 4 (Cavia porcellus, UniProt O70528); assay type: cell membranes, Dunkin-Hartley, Striatum, Membrane; also: in other assays of this panel Not Active means under 50% inhibition at 10 µM
Chain of 5-hydroxytryptamine receptor 4 (O70528 whole entry): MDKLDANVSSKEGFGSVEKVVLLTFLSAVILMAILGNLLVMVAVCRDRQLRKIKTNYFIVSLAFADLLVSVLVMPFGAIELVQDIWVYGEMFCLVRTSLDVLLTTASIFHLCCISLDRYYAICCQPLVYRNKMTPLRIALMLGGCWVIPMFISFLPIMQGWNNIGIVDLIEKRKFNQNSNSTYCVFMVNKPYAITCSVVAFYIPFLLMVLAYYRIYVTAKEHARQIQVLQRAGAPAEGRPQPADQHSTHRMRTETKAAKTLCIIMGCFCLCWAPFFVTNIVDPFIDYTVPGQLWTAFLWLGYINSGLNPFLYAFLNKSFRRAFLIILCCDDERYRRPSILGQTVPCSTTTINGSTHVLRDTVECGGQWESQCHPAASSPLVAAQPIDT

[5] = target: C-C chemokine receptor type 5 (Homo sapiens, UniProt P51681); assay type: cell membranes, HEK293, Membrane; conditions: hek293; also: in other assays of this panel Not Active means under 50% inhibition at 10 µM
Chain of C-C chemokine receptor type 5 (P51681 whole entry): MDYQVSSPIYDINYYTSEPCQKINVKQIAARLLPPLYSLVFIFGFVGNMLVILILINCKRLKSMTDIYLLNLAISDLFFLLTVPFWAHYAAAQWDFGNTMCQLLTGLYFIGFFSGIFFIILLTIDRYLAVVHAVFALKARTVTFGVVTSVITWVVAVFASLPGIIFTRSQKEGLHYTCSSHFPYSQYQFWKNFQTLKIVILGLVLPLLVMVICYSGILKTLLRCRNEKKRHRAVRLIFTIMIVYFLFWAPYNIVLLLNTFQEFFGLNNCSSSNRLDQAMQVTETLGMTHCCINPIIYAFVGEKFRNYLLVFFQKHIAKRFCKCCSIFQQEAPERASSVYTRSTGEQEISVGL

[6] = DRUGMATRIX: Leukotriene, BLT (LTB4) radioligand binding (ligand: [3H]LTB4); assay type: cell membranes, Membrane; conditions: u-937; Not Active = under 50% inhibition at 10 µM
Leukotriene C4 synthase = target: T1, Leukotriene C4 synthase (Cavia porcellus, UniProt A6XA80); assay type: tissue-based, Lung;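 also: enzyme inhibition assay of leukotriene C4 synthase, using LTA4 as the substrate; in other assays of this panel Not Active means under 50% inhibition at 10 µM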
T1 sequence (A6XA80 whole entry): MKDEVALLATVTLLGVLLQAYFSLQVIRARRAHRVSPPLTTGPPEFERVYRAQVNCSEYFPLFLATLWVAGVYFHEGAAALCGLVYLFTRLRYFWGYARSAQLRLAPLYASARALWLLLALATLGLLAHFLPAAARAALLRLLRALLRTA

[7] = target: T2, Polyunsaturated fatty acid lipoxygenase ALOX15 (Oryctolagus cuniculus, UniProt P12530); test: biochemical; assay type: tissue-based, Reticulocytes; conditions: reticulocytes
T2 sequence (P12530 whole entry): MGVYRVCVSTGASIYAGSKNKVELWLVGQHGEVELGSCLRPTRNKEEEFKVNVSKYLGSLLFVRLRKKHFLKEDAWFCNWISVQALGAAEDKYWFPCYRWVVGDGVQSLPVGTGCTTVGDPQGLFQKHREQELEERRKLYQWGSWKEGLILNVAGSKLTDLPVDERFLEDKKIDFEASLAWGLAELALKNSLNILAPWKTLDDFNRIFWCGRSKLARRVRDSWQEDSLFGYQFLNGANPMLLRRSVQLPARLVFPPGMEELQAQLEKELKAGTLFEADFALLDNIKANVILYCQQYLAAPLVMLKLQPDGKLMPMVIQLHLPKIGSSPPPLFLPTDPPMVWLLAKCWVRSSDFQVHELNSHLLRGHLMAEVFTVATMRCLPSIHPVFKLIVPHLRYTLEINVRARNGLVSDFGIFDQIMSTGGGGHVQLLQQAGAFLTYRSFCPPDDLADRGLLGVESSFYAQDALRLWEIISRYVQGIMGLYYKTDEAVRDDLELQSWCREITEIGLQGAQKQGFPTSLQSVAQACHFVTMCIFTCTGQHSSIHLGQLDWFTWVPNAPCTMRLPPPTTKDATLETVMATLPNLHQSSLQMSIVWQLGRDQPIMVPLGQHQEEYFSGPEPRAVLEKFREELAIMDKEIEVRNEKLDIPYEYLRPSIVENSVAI

Melanocortin receptor 5 = Melanocortin receptor 5 (Homo sapiens, UniProt P33032); assay type: cell membranes, Membrane; conditions: hek293; also: in other assays of this panel Not Active means under 50% inhibition at 10 µM
Chain of Melanocortin receptor 5 (P33032 whole entry): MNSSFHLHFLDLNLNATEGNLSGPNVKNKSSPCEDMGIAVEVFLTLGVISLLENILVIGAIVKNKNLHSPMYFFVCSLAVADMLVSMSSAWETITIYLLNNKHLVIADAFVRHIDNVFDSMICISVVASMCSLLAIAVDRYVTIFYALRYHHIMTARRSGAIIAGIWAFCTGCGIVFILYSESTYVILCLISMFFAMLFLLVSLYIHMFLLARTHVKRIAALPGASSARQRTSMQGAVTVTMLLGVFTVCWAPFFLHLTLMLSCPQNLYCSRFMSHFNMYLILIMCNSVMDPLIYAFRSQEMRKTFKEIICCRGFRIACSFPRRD

[8] = target: T3, Muscarinic acetylcholine receptor M2 (Homo sapiens, UniProt P08172); assay type: cell membranes, CHO-K1, Membrane; conditions: cho-k1; also: in other assays of this panel Not Active means under 50% inhibition at 10 µM
T3 sequence (P08172 whole entry): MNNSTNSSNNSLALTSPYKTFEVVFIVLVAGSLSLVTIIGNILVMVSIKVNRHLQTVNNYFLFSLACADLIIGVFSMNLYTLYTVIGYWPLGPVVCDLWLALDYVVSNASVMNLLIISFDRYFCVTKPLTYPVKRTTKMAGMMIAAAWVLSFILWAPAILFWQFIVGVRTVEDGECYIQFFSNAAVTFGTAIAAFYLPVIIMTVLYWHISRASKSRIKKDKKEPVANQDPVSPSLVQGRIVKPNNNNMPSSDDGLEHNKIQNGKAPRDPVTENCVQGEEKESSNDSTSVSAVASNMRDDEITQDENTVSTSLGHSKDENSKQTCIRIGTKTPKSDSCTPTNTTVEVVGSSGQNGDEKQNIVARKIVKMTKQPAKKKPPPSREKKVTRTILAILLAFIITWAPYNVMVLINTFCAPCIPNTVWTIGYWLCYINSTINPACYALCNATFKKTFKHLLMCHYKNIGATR

[9] = target: Matrix metalloproteinase-9 (Homo sapiens, UniProt P14780); test: biochemical; assay type: cell-based
Chain of Matrix metalloproteinase-9 (P14780 whole entry): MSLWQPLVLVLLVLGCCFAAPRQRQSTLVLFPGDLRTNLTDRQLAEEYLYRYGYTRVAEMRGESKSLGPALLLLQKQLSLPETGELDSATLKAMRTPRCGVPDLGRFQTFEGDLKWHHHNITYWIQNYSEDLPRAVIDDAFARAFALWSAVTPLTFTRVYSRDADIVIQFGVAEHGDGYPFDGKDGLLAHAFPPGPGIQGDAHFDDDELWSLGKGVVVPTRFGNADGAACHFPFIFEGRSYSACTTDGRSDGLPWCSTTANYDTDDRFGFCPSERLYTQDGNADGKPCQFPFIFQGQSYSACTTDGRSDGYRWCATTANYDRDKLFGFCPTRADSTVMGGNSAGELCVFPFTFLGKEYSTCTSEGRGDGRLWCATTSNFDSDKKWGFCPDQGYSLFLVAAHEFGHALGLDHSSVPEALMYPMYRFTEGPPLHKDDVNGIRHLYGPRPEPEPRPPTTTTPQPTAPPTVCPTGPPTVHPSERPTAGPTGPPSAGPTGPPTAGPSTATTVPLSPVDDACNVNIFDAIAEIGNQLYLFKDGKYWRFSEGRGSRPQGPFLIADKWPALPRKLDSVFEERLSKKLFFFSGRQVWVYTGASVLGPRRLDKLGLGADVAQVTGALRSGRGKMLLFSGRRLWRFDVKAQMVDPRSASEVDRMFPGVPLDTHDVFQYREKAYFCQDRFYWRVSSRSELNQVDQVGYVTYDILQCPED

Cytochrome P450 2C9 = Cytochrome P450 2C9 (Homo sapiens, UniProt P11712); conditions: bti-tn-5b1-4; also: in other assays of this panel Not Active means under 50% inhibition at 10 µM
Chain of Cytochrome P450 2C9 (P11712 whole entry): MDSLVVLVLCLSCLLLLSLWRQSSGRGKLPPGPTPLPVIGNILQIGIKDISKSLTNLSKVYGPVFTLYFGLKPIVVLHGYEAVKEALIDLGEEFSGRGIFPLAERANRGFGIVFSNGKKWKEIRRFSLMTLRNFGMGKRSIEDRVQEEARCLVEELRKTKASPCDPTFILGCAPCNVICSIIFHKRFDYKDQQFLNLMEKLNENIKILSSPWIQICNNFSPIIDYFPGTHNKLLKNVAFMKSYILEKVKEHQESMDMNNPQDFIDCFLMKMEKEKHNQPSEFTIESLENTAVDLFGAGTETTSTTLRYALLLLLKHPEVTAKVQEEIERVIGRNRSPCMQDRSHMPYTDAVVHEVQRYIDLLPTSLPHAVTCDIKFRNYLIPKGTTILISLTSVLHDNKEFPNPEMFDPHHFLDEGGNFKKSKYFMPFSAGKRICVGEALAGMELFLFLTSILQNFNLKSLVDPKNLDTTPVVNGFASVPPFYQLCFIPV

Chain of Beta-3 adrenergic receptor (P13945 whole entry): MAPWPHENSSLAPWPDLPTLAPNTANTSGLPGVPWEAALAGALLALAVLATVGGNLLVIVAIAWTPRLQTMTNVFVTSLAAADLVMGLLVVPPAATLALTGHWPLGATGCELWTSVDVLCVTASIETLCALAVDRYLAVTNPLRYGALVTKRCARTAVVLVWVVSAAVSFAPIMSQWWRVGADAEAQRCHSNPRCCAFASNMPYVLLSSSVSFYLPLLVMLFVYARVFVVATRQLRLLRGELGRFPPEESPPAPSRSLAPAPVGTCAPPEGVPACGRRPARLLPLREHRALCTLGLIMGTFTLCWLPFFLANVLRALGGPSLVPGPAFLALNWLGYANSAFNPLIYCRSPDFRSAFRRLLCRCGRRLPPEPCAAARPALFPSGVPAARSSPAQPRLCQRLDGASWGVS

CO[C@H]1/C=C/O[C@@]2(C)Oc3c(C)c(O)c4c(c3C2=O)C2=NC3(CCN(CC(C)C)CC3)NC2=C(NC(=O)/C(C)=C\C=C\[C@H](C)[C@H](O)[C@@H](C)[C@@H](O)[C@@H](C)[C@H](OC(C)=O)[C@@H]1C)C4=O [RIFABUTIN]
Not Active: IC50 [1] | IC50 [2] | Ki [2] | IC50 [3] | IC50 [4] | IC50 [5] | IC50 [6] | Ki [6] | IC50 (Leukotriene C4 synthase) | IC50 [7] | IC50 (Melanocortin receptor 5) | IC50 [8] | IC50 [9] | IC50 (Cytochrome P450 2C9) | Ki (Cytochrome P450 2C9)

CC(C)CC(N(C)C)C1(c2ccc(Cl)cc2)CCC1 (stereo not given) [SIBUTRAMINE]
Not Active: IC50 [1] | IC50 [2] | Ki [2] | IC50 [3] | IC50 [4] | IC50 [5] | IC50 [6] | Ki [6] | IC50 (Leukotriene C4 synthase) | IC50 [7] | IC50 (Melanocortin receptor 5) | IC50 [8] | IC50 [9] | IC50 (Cytochrome P450 2C9) | Ki (Cytochrome P450 2C9)

[H]/N=C(/N)N[C@H]1[C@H](O)[C@@H](O)[C@H](O[C@@H]2O[C@@H](C)[C@](O)(C=O)[C@H]2O[C@@H]2O[C@@H](CO)[C@H](O)[C@@H](O)[C@@H]2NC)[C@@H](N/C(N)=N\[H])[C@@H]1O [STREPTOMYCIN]
Not Active: IC50 [1] | IC50 [2] | Ki [2] | IC50 [3] | IC50 [4] | IC50 [5] | IC50 [6] | Ki [6] | IC50 (Leukotriene C4 synthase) | IC50 [7] | IC50 (Melanocortin receptor 5) | IC50 [8] | IC50 [9] | IC50 (Cytochrome P450 2C9) | Ki (Cytochrome P450 2C9)

Cc1cc(C)nc(NS(=O)(=O)c2ccc(N)cc2)n1 [SULFAMETHAZINE]
Not Active: IC50 [1] | IC50 [2] | Ki [2] | IC50 [3] | IC50 [4] | IC50 [5] | IC50 [6] | Ki [6] | IC50 (Leukotriene C4 synthase) | IC50 [7] | IC50 (Melanocortin receptor 5) | IC50 [8] | IC50 [9] | IC50 (Cytochrome P450 2C9) | Ki (Cytochrome P450 2C9)

C[C@]1(Cn2ccnn2)[C@H](C(=O)O)N2C(=O)C[C@H]2S1(=O)=O [TAZOBACTAM]
Not Active: IC50 [1] | IC50 [2] | Ki [2] | IC50 [3] | IC50 [4] | IC50 [5] | IC50 [6] | Ki [6] | IC50 (Leukotriene C4 synthase) | IC50 [7] | IC50 (Melanocortin receptor 5) | IC50 [8] | IC50 [9] | IC50 (Cytochrome P450 2C9) | Ki (Cytochrome P450 2C9)

CN1C(C(=O)Nc2ccccn2)=C(O)c2sccc2S1(=O)=O [TENOXICAM]
Not Active: IC50 [1] | IC50 [2] | Ki [2] | IC50 [3] | IC50 [4] | IC50 [5] | IC50 [6] | Ki [6] | IC50 (Leukotriene C4 synthase) | IC50 [7] | IC50 (Melanocortin receptor 5) | IC50 [8] | IC50 [9] | IC50 (Cytochrome P450 2C9) | Ki (Cytochrome P450 2C9)

O=C1CCC(N2C(=O)c3ccccc3C2=O)C(=O)N1 (stereo not given) [THALIDOMIDE]
Not Active: IC50 [1] | IC50 [2] | Ki [2] | IC50 [3] | IC50 [4] | IC50 [5] | IC50 [6] | Ki [6] | IC50 (Leukotriene C4 synthase) | IC50 [7] | IC50 (Melanocortin receptor 5) | IC50 [8] | IC50 [9] | IC50 (Cytochrome P450 2C9) | Ki (Cytochrome P450 2C9)

Cc1cccc(Nc2ccncc2S(=O)(=O)NC(=O)NC(C)C)c1 [TORSEMIDE]
Not Active: IC50 [1] | IC50 [2] | Ki [2] | IC50 [3] | IC50 [4] | IC50 [5] | IC50 [6] | Ki [6] | IC50 (Leukotriene C4 synthase) | IC50 [7] | IC50 (Melanocortin receptor 5) | IC50 [8] | IC50 [9] | IC50 (Cytochrome P450 2C9) | Ki (Cytochrome P450 2C9)
